Test results reported in patent publication US8338420B1, “Treatment of Parkinson's disease and enhancement of dopamine signal using PDE 10 inhibitor” (Mitsubishi Tanabe Pharma Corporation, priority 2002, dated 2012).
pIC50: −log10 of the molar value.

Biological target: T1, PDE6 (Bos taurus, UniProt P11541+P23439)
T1 construct: tissue Tokyo Shibaura Zoki; host or cells: bovine retina, rod outer segments, gel filtration, then limited trypsin treatment
T1 sequence (P11541 2-856 limits assumed): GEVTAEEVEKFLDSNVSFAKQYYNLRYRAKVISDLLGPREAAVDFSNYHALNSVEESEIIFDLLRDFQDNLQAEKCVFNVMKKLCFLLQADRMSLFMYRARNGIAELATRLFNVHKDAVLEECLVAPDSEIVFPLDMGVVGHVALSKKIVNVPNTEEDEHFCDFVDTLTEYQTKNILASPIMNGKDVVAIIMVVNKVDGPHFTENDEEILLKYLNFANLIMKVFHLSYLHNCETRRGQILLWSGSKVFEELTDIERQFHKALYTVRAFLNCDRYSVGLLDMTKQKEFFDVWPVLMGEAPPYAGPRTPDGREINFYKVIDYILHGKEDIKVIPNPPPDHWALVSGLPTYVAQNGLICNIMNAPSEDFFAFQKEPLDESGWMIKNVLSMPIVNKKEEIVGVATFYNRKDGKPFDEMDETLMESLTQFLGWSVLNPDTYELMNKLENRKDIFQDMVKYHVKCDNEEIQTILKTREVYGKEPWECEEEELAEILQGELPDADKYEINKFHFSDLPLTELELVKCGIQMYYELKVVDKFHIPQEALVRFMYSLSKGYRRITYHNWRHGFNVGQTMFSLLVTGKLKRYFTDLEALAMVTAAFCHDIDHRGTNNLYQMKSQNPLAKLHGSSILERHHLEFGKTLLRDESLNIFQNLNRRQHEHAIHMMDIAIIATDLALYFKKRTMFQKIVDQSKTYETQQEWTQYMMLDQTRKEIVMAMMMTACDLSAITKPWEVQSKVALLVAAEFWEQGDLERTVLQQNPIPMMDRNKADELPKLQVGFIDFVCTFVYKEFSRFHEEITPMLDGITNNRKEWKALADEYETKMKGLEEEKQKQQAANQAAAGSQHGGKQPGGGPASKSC
T1 sequence (P23439 2-850 limits assumed): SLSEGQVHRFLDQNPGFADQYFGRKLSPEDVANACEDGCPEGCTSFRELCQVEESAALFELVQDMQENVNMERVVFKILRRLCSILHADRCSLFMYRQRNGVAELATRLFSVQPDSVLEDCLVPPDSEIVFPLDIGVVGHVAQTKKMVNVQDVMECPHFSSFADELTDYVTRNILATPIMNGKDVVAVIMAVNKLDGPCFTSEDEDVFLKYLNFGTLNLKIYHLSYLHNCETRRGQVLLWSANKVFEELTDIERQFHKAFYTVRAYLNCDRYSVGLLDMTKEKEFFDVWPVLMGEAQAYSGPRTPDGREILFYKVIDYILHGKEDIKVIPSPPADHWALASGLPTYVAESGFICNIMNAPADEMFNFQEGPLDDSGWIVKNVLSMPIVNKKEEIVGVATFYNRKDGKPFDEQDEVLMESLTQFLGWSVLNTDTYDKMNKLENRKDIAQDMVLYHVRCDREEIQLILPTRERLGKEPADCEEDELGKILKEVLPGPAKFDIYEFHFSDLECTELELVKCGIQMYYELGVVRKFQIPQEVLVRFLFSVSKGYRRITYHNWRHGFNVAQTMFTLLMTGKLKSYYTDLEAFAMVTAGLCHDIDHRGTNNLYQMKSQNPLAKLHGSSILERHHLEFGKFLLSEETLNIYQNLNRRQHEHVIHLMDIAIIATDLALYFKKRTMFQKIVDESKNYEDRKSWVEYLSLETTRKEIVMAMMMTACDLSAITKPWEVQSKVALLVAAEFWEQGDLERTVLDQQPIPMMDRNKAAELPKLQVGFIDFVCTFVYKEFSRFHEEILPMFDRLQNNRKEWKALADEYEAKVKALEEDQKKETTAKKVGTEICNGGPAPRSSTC
Assay: PDE assay, trypsin-activated PDE6 from bovine retina
Assay type: biochemical
Conditions: substrate about 12 nM [3H]-cGMP and 10 μM cGMP
Protocol: From the bovine eyeball, purchased from Tokyo Shibaura Zoki, co., Ltd., retina (pale red colored) which is present as a membrane on the pigmented layer was collected and stored at −70° C.
To buffer A [16 mM MOPS-NaOH, pH7.5, 1.6 mM dithiothreitol, 8 mM magnesium chloride, 96 mM potassium chloride, 48 mM sodium chloride, 0.16 mM phenylmethylsulfonyl fluoride, 10 μM pepstatin A, 10 μM leupeptin] (20 ml), sucrose (6 g) was dissolved. Added thereto was the above-mentioned retina (about 7 g), and the mixture was stirred for 30 minutes while cutting the retina by scissors. The mixture was applied to centrifugation at 2000 rpm, at 4° C. for 5 minutes and the supernatant was collected. To the resultant residue was added buffer B[10 mM MOPS, pH7.5, 1 mM dithiothreitol, 5 mM magnesium chloride, 60 mM potassium chloride, 30 mM sodium chloride, 0.1 mM phenylmethylsulfonyl fluoride, 10 μM pepstatin A, 10 μM leupeptin] (40 ml), and the mixture was stirred by rolling several times. This was applied to centrifugation and the resultant supernatant was combined with the above obtained supernatant. This is further centrifuged at 7000 rpm, at 4° C., for 5 minutes, and the precipitates were obtained as crude rod outer segment (ROS). […]
Further, PDE assay was carried out using the above-eluted fractions as an enzyme solution, and cGMP-hydrolyzing activity was measured. […]

pIC50: 6.54
SMILES: COc1ccc(-c2cc(N3CCCC3)nc(/C=C/c3nc(-n4ccnc4)c4ccccc4n3)n2)cc1OC [Compound A, 2-{(E)-2-[4-(1-imidazolyl)-quinazolin-2-yl]}ethenyl-4-(3,4-dimethoxy)phenyl-6-(pyrrolidin-1-yl)pyrimidine]
